# What was measured:
# [1] = system: HT29 xenograft tumors; experiment: in vivo anti-tumor activity on HT29 xenograft tumors (BRAF V600E colorectal model); parameters: species or system BALB/c Nude mice; conditions: monotherapy PO QD, 140 mpk, 60 mpk or 30 mpk; compared with encorafenib 24 mpk; FIG. 6
# Text: (§1) FIG. 1 illustrates a schematic representation of the study design reported in FIG. 2 to and specifies the dosage regime that was used for treating the different cohorts in a colorectal tumour model bearing LS411N xenografts, according to some embodiments. Both models are CRC models and present the BRAF V600E mutation.
# FIG. […] Mice were, for example, treated (QD) until day 43 and the graph expresses mean tumour volume [mm3] for the different cohorts.
# (§2) FIG. 7 reports in vivo anti-tumor activity of a combination of R07276389 at 140 mpk or of encorafenib at 24 mpk, in each instance with 20 mpk of cetuximab on HT29 xenograft tumors in BALB/c Nude mice (10 mice/cohort), according to some embodiments. Monotherapy controls were, for example, also included and the mice were treated (QD) until day 43 and the graph expresses mean tumour volume [mm3] for the different cohorts.
# as §2, with “FIG. 8” for “FIG. 7”, “at 60” for “at 140”, “cohorts. […]” for “cohorts.”
# [2] = system: LS411N xenograft tumors; experiment: in vivo anti-tumor activity on LS411N xenograft tumors (BRAF V600E colorectal model); parameters: species or system BALB/c Nude mice; conditions: monotherapy PO QD, 20 mpk, 50 mpk or 140 mpk; compared with encorafenib 24 mpk; FIG. 2
# Text: as §1
# FIG. 2 […], or of encorafenib at 24 mpk on LS411N xenograft tumors in BALB/c Nude mice (10 mice/cohort), according to some embodiments. Mice were, for example, treated (QD) until day 43 and the graphs express mean tumour volume [mm3] for the different cohorts.
# as §2, with “FIG. 3” for “FIG. 7”, “on LS411N” for “on HT29”
# FIG. 4 reports in vivo anti-tumor activity of a combination of R07276389 at 60 mpk or of encorafenib at 24 mpk, in each instance with 20 mpk of cetuximab on LS411N xenograft tumors in BALB/c Nude mice (10 mice/cohort), according to some embodiments. […]
smiles,measurement,setting,value
"Cn1cnc2ccc(Oc3c(F)ccc(NS(=O)(=O)N4CC[C@@H](F)C4)c3C#N)cc2c1=O [Compound R07276389, (3R)-N-[2-cyano-4-fluoro-3-(3-methyl-4-oxo-quinazolin-6-yl)oxy-phenyl]-3-fluoro-pyrrolidine-1-sulfonamide]",tumour growth inhibition,[1],dose-dependent tumour growth inhibition that was significantly higher when compared with encorafenib
same,tumour growth inhibition,[2],dose-dependent tumour growth inhibition that was significantly higher when compared with encorafenib
